Assay results reported in paper PMC7436000, “The Spectrum of Design Solutions for Improving the Activity-Selectivity Product of Peptide Antibiotics against Multidrug-Resistant Bacteria and Prostate Cancer PC-3 Cells” (Molecules, 2020).
Converted amounts (≈) assume the structure as drawn. Peptide text beside a SMILES is read from it.

Key:
[1] = system: human erythrocytes; test: Hemolysis of human erythrocytes; assay type: cell-based; conditions: 24 h
[2] = system: Escherichia coli MG1655; assay type: cell-based; conditions: MG1655
From the text: (§1) The American Type Culture Collection (ATCC, Rockville, MD, USA) strains and Escherichia coli MG1655 were used as standard bacterial strains. Gram-negative ATCC strains consisted of Escherichia coli (ATCC 25922), Pseudomonas aeruginosa (ATCC 27853), Acinetobacter baumannii (ATCC 19606), and Klebsiella pneumoniae (ATCC 13883). The only Gram-positive standard strain chosen for testing was Staphylococcus aureus (ATCC 29213). Clinical isolates with confirmed multidrug-resistance phenotype were obtained from different wards of the University Hospital Center, Split, Croatia. We described their origin, antibiograms, and resistance phenotype previously. In the same paper, we described the procedure for antimicrobial susceptibility testing on planktonic cells, using the microdilution method in 96-well microtiter plates.
(§2) Briefly, cells were grown on agar plates and a single colony was sampled to generate a liquid culture (LC) grown overnight at 37 °C. The culture was sampled, resuspended in fresh medium, and allowed to grow at 37 °C, until reaching the mid-exponential phase. Lysogeny broth (LB) was used in the case of the E. coli MG1655 cells. Mueller Hinton (MH) medium was used for all other bacterial strains. Serial 2-fold dilutions of the peptide (64 μM to 0.0625 μM) were prepared from peptide stock solution in PBS, and added to a final load of 5 × 10^5 CFU/mL in 100 μL total volume of medium per well in a 96-well plate (Brand 781660). Bacterial cultures were incubated with peptides for 18 h to 24 h at 37 °C. The minimum inhibitory concentration (MIC) was defined as the lowest concentration of the peptide, at which no visible bacterial growth was observed. The MIC for each of the tested peptides was determined in at least three individual assays under the same laboratory conditions. […] At the end of the incubation period for MIC or MBC, the determination of the OD600 was analyzed.

[3] = system: Escherichia coli (ATCC 25922); assay type: cell-based; conditions: ATCC 25922
From the text: as §1, §2

[4] = system: Klebsiella pneumoniae (ATCC 13883); assay type: cell-based; conditions: ATCC 13883
From the text: as §1, §2

[5] = system: Pseudomonas aeruginosa (ATCC 27853); assay type: cell-based; conditions: ATCC 27853
From the text: as §1, §2

[6] = system: Acinetobacter baumannii (ATCC 19606); assay type: cell-based; conditions: ATCC 19606
From the text: as §1, §2

[7] = system: Staphylococcus aureus (ATCC 29213); assay type: cell-based
From the text: as §1, §2

[8] = system: S. aureus clin. isolate; assay type: cell-based, Staphylococcus aureus; conditions: clin. isolate
From the text: as §1, §2

[9] = system: P. aerug. clin. isolate; assay type: cell-based, Pseudomonas aeruginosa
From the text: as §1, §2

[10] = system: PC-3 prostate cancer cell line; assay type: cell-based, human; conditions: 24 h
Method: (§3) Prostate cancer cells were donated by the University of Split, School of Medicine. Cells were cultured in RMPI-1640 medium, supplemented with 10% FBS, 1% Penicillin-Streptomycin, and 1% L-Glutamine. Human dermal fibroblasts were purchased from Biopredic (France) and cultured in DMEM medium, supplemented with 10% FBS and 1% Penicillin-Streptomycin. All cell lines were maintained in a humidified incubator with 5% CO2 at 37 °C. Cells were detached using the trypsin-EDTA solution and sub-cultured (7000 cells/well) in a 96-well plate overnight. Peptide stock solutions were prepared in PBS, and cancer cells were treated with 2-fold serial dilutions for 24 h at 37 °C, with 5% CO2. The toxicity of 6 selected peptides was assessed by a standard MTT assay. Treated cells were incubated with MTT working solution (0.5 mg/mL Thiazolyl Blue Tetrazolium Bromide) for 4 h at 37 °C with 5% CO2. Precipitated formazan was dissolved in 200 µL DMSO and absorbance was measured at 595 nm with EnSight Multimode Plate Reader (PerkinElmer, Inc.)

[11] = system: E. coli clin. isolate; assay type: cell-based, Escherichia coli; conditions: clin. isolate
From the text: as §1, §2

[12] = system: A. baum. clin. isolate; assay type: cell-based, Acinetobacter baumannii
From the text: as §1, §2

[13] = system: human primary dermal fibroblasts; assay type: cell-based; conditions: 24 h
Method: as §3

[14] = system: K. pneum. clin. isolate; assay type: cell-based, Klebsiella pneumoniae
From the text: as §1, §2

[15] = system: human erythrocytes; test: Hemolysis of human erythrocytes; assay type: cell-based; conditions: 1 h
Method: Fresh blood was obtained from a healthy donor. Blood was stored in a tube containing EDTA at 4 °C and used within 24 h. Before use, 1 mL of blood was centrifuged (400× g, 10 min), and the supernatant was discarded. Moreover, 500 μL cold PBS with EDTA (1 mM) was added, mixed and centrifuged. The supernatant was discarded. Furthermore, 500 μL of cold PBS with EDTA (1 mM) was added, from which a dilution of 1% blood was made. Peptides were prepared in PBS at a 2 × concentration in 100 µL. […] The suspension was incubated at 37 °C for 1 h and centrifuged at 10,000× g for 5 min. […] After centrifugation, the supernatant was added to a 96-well microtiter plate (150–180 μL), and the absorbance was measured at 450 nm, using EnSight Multimode Plate Reader (PerkinElmer, Inc.). Each measurement was done in triplicate. […] We opted to also include the extrapolated HC50 in our results, to permit comparisons with older toxicity results. However, the HC20 measurements were used for ranking the peptides according to their selectivity and overall performance (Figure 1 and Figure 2 and Table 2).

[16] = cited from earlier work
[17] = system: lymphoma cell line U937; parameters: method as in PMID 21403917; conditions: read-out: IC50 against lymphoma cell line U937; cited from earlier work
[18] = system: standard ATCC S. aureus; conditions: cited from earlier work
[19] = system: standard ATCC E. coli; conditions: cited from earlier work
[20] = system: human neonate chondrocytes; conditions: cited from earlier work
From the text: (§4) In the ZYK1 example, the parent peptide already has selective antimicrobial and antitumor activity. […] It follows that the TI for the paren ...

[21] = system: HeLa (human cervical carcinoma cells) and HL60 (human promyelocytic leukemia cells); conditions: two selected cancer cell lines; read-out: IC50 against HeLa and HL60; cited from earlier work
From the text: as §4

[22] = system: Gram-negative and Gram-positive bacteria; conditions: cited from earlier work
From the text: as §4

[23] = cited from earlier work; remark: listed apart in the source
From the text: The MAPA analog of the MAP cell-penetrating peptide is five times less hemolytic and has at least two times stronger antibacterial activity than MAP [73] (Table 2). Accordingly, by introduced substitutions, we increased the selectivity index by at least one order of magnitude, and converted a strongly hemolytic, predominantly cell-penetrating peptide with no antibacterial selectivity (SI = 1, [73]), into a potent peptide antibiotic. MAP is an important molecule for engineering new anticancer agents, but as far as we can tell, MAPA is the first known selective anticancer MAP an ...

[24] = system: human erythrocytes; conditions: cited from earlier work
From the text: The cell-penetrating ability is inherent to some amphipathic peptides with a high percentage of cationic residues. More than five arginines are required to direct membrane penetration through the eukaryotic membrane. This condition is fulfilled by guananin 2, the PenArg analog of penetratin, and T2R1, but not by T2. Penetratin, with the sequence […], is a well-known cell-penetrating peptide, which is furthermore an antimicrobial and anticancer peptide. That peptide is, to some degree, toxic to HeLa and Jurkat cancer cell lines. The toxicity to HeLa ...

Compound	MIC (E. coli MG1655) [2]	MIC (E. coli ATCC 25922) [3]	MIC (K. pneum. ATCC 13883) [4]	MIC (P. aerug. ATCC 27853) [5]	MIC (A. baum. ATCC 19606) [6]	MIC (S. aureus ATCC 29213) [7]	MIC (S. aureus clin. isolate) [8]	MIC (P. aerug. clin. isolate) [9]	(TI/ IC50C) vs. MP1 [10]	IC50 [10]	TI (HC20/IC20C) [10]	TI (IC50F/IC50C) [10]	TI/ IC50C [10]	MIC (E. coli clin. isolate) [11]	MIC (A. baum. clin. isolate) [12]	IC50 [13]	MIC (K. pneum. clin. isolate) [14]	further results
CC[C@H](C)[C@H](NC(=O)CN)C(=O)NCC(=O)N[C@@H](CCCCN)C(=O)N[C@@H](Cc1ccccc1)C(=O)N[C@@H](CC(C)C)C(=O)N[C@@H](CCCCN)C(=O)N[C@@H](CCCCN)C(=O)N[C@@H](C)C(=O)N[C@@H](CCCCN)C(=O)N[C@@H](CCCCN)C(=O)N[C@@H](Cc1ccccc1)C(=O)NCC(=O)N[C@@H](CCCCN)C(=O)N[C@@H](C)C(=O)N[C@@H](Cc1ccccc1)C(=O)N[C@H](C(=O)N[C@@H](CC(C)C)C(=O)N[C@H](C(=O)N[C@@H](CC(C)C)C(=O)N[C@@H](CCCCN)C(=O)N[C@@H](CCCCN)C(N)=O)[C@@H](C)CC)C(C)C [PEXA] (H-GIGKFLKKAKKFGKAFVLILKK-NH2)	4 µM (≈ 9.85 µg/mL)	0.5 to 1 µM	2 µM (≈ 4.92 µg/mL)	4 µM (≈ 9.85 µg/mL)	1 to 2 µM	0.5 µM (≈ 1.23 µg/mL)	2 µM (≈ 4.92 µg/mL)	16 µM (≈ 39.4 µg/mL)	18	4 µM	6.7	3	0.75	4 µM (≈ 9.85 µg/mL)	1 to 2 µM	12 µM	4 µM (≈ 9.85 µg/mL)	HC50 * (extrapolated) [1]: 520 * µM; HC10 [15]: 1.6 µM; HC20 [15]: 7 µM
CC[C@H](C)[C@H](NC(=O)[C@@H](NC(=O)[C@H](CCCNC(=N)N)NC(=O)CNC(=O)[C@@H](NC(=O)[C@H](CCCCN)NC(=O)[C@H](CCCCN)NC(=O)CNC(=O)[C@@H](NC(=O)[C@H](CCCCN)NC(=O)[C@H](CCCCN)NC(=O)[C@@H](NC(=O)[C@@H](NC(=O)[C@H](CCCCN)NC(=O)[C@H](CCCCN)NC(=O)[C@@H](NC(=O)[C@@H](NC(=O)[C@H](CCC(=O)O)NC(=O)[C@H](CCCNC(=N)N)NC(=O)CNC(=O)[C@@H](NC(=O)CN)[C@@H](C)CC)[C@@H](C)CC)[C@@H](C)CC)[C@@H](C)CC)[C@@H](C)CC)[C@@H](C)CC)[C@@H](C)CC)[C@@H](C)CC)C(N)=O [ZYK1] (H-GIGREIIKKIIKKIGKKIGRII-NH2)	4 µM (≈ 9.9 µg/mL)	1 µM (≈ 2.47 µg/mL)	2 µM (≈ 4.95 µg/mL)	16 µM (≈ 39.6 µg/mL)	2 µM (≈ 4.95 µg/mL)	1 µM (≈ 2.47 µg/mL)	2 µM (≈ 4.95 µg/mL)	16 µM (≈ 39.6 µg/mL)	107	1.5 µM	8.6	6.7	4.47	2 µM (≈ 4.95 µg/mL)	2 µM (≈ 4.95 µg/mL)	10 µM	4 µM (≈ 9.9 µg/mL)	PEa(20) = SI/MIC(aureus) ([7]; ATCC 29213, 18 h): 8 µM⁻¹; HC10 ([15]; concentration causing 10% hemolysis, 0.5% RBC in PBS, 37 °C, absorbance 450 nm, 0.2% Triton = 100%, triplicate): 3 µM; HC20 ([15]; concentration causing 20% hemolysis, 0.5% RBC in PBS, 37 °C, absorbance 450 nm, triplicate): 8 µM; HC50 ([15]; concentration causing 50% hemolysis, 0.5% RBC in PBS, 37 °C, absorbance 450 nm, triplicate): 29 µM
GIGKFLKKAKKFGKAFVKILKK [pexiganan, well-known broad-spectrum peptide antibiotic]	–	–	–	–	–	–	–	–	–	–	–	–	–	–	–	–	–	HC50 hemolytic activity [16]: 45 µM; IC50 [17]: 4 µM; MIC, standard ATCC S. aureus [18]: 6.5 µM; MIC, standard ATCC E. coli [19]: 6.5 µM
GIIKKIIKKIIKKI-NH2 [already known artificial AMP template of ZYK1]	–	–	–	–	–	–	–	–	–	–	–	–	–	–	–	–	–	IC50 [20]: > 40 µM; IC50 [21]: 15 to 25 µM; MIC values [22]: about 10 μM
KLALKLALKALKAALKLA [MAP, cell-penetrating peptide, template of mapegin]	–	–	–	–	–	–	–	–	–	–	–	–	–	–	–	–	–	antibacterial selectivity SI [23]: 1
RQYMRQIEQALRYGYRISRR [guananin 2, arginine-rich designed peptide from the literature]	–	–	–	–	–	–	–	–	–	–	–	–	–	–	–	–	–	selectivity index [24]: about 24
